Laboratory results from article PMC9065794 (RSC Advances, 2019).

Tests used:
[1] = target: T1, electric eel acetylcholinesterase (EeAChE) (Electrophorus electricus, UniProt O42275); assay: Anticholinesterase activity assay; assay type: biochemical
[2] = target: T2, equine serum butyrylcholinesterase (EqBuChE) (Equus caballus, UniProt P81908); assay: Anticholinesterase activity assay; assay type: biochemical, horse
[3] = target: T1, electric eel acetylcholinesterase (EeAChE); assay: Enzymatic kinetic study; assay type: biochemical
[4] = target: T2, equine serum butyrylcholinesterase (EqBuChE); assay: Enzymatic kinetic study; assay type: biochemical, horse

T1 sequence (O42275 24-633): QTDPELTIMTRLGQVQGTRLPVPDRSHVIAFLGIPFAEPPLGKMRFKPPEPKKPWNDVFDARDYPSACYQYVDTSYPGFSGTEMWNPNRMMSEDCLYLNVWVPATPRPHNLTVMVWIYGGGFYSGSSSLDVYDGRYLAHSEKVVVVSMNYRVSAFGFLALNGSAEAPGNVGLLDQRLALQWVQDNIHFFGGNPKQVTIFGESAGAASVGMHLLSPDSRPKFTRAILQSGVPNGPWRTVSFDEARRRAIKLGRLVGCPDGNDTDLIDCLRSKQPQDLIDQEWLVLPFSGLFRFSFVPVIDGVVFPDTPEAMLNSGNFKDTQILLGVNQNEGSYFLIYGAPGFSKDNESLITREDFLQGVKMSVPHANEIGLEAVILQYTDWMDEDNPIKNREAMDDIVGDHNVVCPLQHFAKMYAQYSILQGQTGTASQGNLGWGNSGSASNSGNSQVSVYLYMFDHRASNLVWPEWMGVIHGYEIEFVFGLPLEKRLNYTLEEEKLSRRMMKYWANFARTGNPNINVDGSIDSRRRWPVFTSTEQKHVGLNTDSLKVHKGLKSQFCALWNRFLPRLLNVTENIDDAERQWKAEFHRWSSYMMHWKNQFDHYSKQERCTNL
T2 sequence (P81908 whole entry): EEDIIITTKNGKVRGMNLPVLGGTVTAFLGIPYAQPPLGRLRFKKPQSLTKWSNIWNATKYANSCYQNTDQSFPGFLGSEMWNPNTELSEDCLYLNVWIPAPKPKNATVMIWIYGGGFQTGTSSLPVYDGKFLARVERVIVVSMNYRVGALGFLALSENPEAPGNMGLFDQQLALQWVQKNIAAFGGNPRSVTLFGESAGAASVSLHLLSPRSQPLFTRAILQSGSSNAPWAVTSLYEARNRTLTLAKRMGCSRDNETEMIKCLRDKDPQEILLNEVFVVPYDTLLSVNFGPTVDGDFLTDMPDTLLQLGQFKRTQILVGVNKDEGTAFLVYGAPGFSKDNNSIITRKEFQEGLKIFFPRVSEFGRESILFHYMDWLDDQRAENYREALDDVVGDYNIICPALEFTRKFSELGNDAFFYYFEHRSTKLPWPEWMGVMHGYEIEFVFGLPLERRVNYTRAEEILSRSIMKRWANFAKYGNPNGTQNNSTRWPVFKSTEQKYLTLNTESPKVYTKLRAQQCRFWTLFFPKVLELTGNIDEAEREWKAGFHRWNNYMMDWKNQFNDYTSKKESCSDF

Row | Compound | IC50 [1] [nM] | IC50 [2] [nM] | other results
1 | Nc1nc(-c2ccccc2)n(-c2ccccc2)n1 [Compound 6a, 1,5-Diphenyl-1,2,4-triazol-3-amine] |  |  | cholinesterase inhibition (AChE), in words ([1]; at 30 μM): no significant cholinesterase inhibition; inhibition at 30 µM ([1]; read-out: AChE inhibition (class NA in IC50 column)): < 20%; cholinesterase inhibition (BuChE), in words ([2]; at 30 μM): no significant cholinesterase inhibition; inhibition at 30 µM ([2]; read-out: BuChE inhibition (class NA in IC50 column)): < 20%
2 | c1ccc(CN2CCN(CCCNc3nc(-c4ccccc4)n(-c4ccccc4)n3)CC2)cc1 [Compound 13a, N-(3-(4-benzylpiperazin-1-yl)propyl)-1,5-diphenyl-1H-1,2,4-triazol-3-amine] |  |  | type of inhibition, AChE [3]: mixed-type inhibition; type of inhibition, BuChE [4]: mixed-type inhibition
3 | c1ccc(CN2CCN(CCCCNc3nc(-c4ccccc4)n(-c4ccccc4)n3)CC2)cc1 [Compound 13b, N-(4-(4-benzylpiperazin-1-yl)butyl)-1,5-diphenyl-1H-1,2,4-triazol-3-amine] | 3790 ± 61 | 1630 ± 111 | 
4 | c1ccc(CN2CCN(CCCCCNc3nc(-c4ccccc4)n(-c4ccccc4)n3)CC2)cc1 [Compound 13c, N-(5-(4-benzylpiperazin-1-yl)pentyl)-1,5-diphenyl-1H-1,2,4-triazol-3-amine] | 11000 ± 251 | 1650 ± 59 | 
5 | c1ccc(CN2CCN(CCCCCCNc3nc(-c4ccccc4)n(-c4ccccc4)n3)CC2)cc1 [Compound 13d, N-(6-(4-benzylpiperazin-1-yl)hexyl)-1,5-diphenyl-1H-1,2,4-triazol-3-amine] | 5220 ± 188 | 2210 ± 68 | 
